From US8293218B2, “Skin care compositions comprising substituted monoamines” (Conopco, Inc., priority 2010, dated 2012)

tested on: Melanoderm tissue equivalent model MEL-300 containing melanocytes obtained from dark skin individuals; assay: Melanoderm tissue equivalent model MEL-300, total melanin content (inhibition of melanogenesis); assay type: cell-based; details: Melanocyte, 336 h; 10 μM in maintenance medium, 14 days, total melanin content vs DMSO vehicle control; read-out: Melanoderm (% Reduction at 10 μM)
Procedure: Melanoderm tissue equivalent model MEL-300 (MatTek: Ashland, Mass.) containing melanocytes obtained from dark skin individuals were cultured as per supplier instructions. Components were added to the maintenance medium phase (no topical treatments) at a final concentration of 10 μM for 14 days at which time the experiment was terminated and the tissues assessed for melanin content. Medium and treatments were changed three times per week. DMSO was utilized as the vehicle control and all treatments were performed at least in duplicate.
For quantification of total melanin, each Melanoderm was placed into an individual Eppendorf tube (2 mL) into which 250 μL of Solvable™ tissue solubilizer (Packard Bioscience Co., Cat #6NE9100) was added. Each tube was vortexed and incubated at 60° C. for 18 hours. Each sample was then centrifuged (5-minutes at 13,000 RPMs) to remove any particulates. 100 or 200 μL of supernatant were transferred to a 96 well microtiter plate and the absorbance read at 490 nm. Total melanin content was calculated from a standard curve using synthetic melanin (Sigma Cat #M8631). Data was analyzed for significance using the t-test in Microsoft Excel to generate p-values (p-values less than 0.01 represent 99% confidence, p values of 0.05 represent 95% confidence both of which are statistically significant).

| Compound | inhibition at 10 µM [%] |
| --- | --- |
| COc1ccc(CNCCc2ccccc2)cc1OC [Compound 3a, N-(3,4-dimethoxybenzyl)-2-phenylethanamine] | 40.3 |
| COc1ccc(CNCCc2ccccc2)cc1 [Compound 3b, N-(4-methoxybenzyl)-2-phenylethanamine] | 54.4 |
| c1ccc(CCNCc2cccc(Oc3ccccc3)c2)cc1 [Compound 3c, N-(3-phenoxybenzyl)-2-phenylethanamine] | 68.9 |
| COc1ccc(OC)c(CNCCc2ccccc2)c1 [Compound 3d, N-(2,5-dimethoxybenzyl)-2-phenylethanamine] | 60.3 |
| Cc1ccc(CNCCc2ccccc2)cc1C [Compound 3e, N-(3,4-dimethylbenzyl)-2-phenylethanamine] | 64.5 |
| c1ccc(CCNCC2CCCCC2)cc1 [Compound 3f, N-(cyclohexylmethyl)-2-phenylethanamine] | 69.5 |
| COc1cc(CNCCc2ccccc2)cc(OC)c1 [Compound 3g, N-(3,5-dimethoxybenzyl)-2-phenylethanamine] | 51.6 |
| COc1ccc(CCNCCc2ccccc2)cc1OC [Compound 3h, 2-(3,4-dimethoxyphenyl)-N-phenethylethanamine] | 53.1 |
| COc1ccc(CN(C)CCc2ccccc2)cc1OC [Compound 7, N-(3,4-dimethoxybenzyl)-N-methyl-2-phenylethanamine] | 44.4 |
| COc1ccc(CNCCC(C)C)cc1OC [Compound 9, N-(3,4-dimethoxybenzyl)-3-methylbutan-1-amine] | 1.9 |
